Structures are written as SMILES. Entries after “also recorded” stand apart in the source; their conditions may differ.

This note sets out measurements from patent US8158828B2, “Nuclear receptor binding agents” (priority 2005, dated 2012).

Data set [1] has as its system pS2 (gene encoding the trefoil peptides) in MCF-7 cells. The experiment in a line: pS2 gene expression in MCF-7 cells (realtime RT-PCR). In kind it is cell-based. How it is done:
MCF-7 cells were plated at 500,000 cells per well of a 6 well plate. RNA was isolated and the message levels of pS2 (gene encoding the trefoil peptides) measured and normalized to 18S ribosomal RNA by realtime polymerase chain reaction (rtPCR).
FIG. 11: Agonistic activity of the indicated compounds in MCF-7 cells. MCF-7 cells were plated at 500,000 cells per well of a 6 well plate. RNA was isolated and the message levels of pS2 gene measured and normalized to 18S ribosomal RNA by realtime rtPCR.
MCF-7 cells were plated at 500,000 cells per well of a 6 well plate. The cells were serum starved for 3 days and then were treated as above for 16 hrs. RNA was isolated and gene expression levels assessed by realtime RT-PCR, following normalization to 18S ribosomal RNA.

The target in a further data set is T1, AR (Rattus norvegicus, UniProt P15207).
T1 construct: expressed in transfected cells; host or cells: COS cells
T1 sequence (P15207 1-902): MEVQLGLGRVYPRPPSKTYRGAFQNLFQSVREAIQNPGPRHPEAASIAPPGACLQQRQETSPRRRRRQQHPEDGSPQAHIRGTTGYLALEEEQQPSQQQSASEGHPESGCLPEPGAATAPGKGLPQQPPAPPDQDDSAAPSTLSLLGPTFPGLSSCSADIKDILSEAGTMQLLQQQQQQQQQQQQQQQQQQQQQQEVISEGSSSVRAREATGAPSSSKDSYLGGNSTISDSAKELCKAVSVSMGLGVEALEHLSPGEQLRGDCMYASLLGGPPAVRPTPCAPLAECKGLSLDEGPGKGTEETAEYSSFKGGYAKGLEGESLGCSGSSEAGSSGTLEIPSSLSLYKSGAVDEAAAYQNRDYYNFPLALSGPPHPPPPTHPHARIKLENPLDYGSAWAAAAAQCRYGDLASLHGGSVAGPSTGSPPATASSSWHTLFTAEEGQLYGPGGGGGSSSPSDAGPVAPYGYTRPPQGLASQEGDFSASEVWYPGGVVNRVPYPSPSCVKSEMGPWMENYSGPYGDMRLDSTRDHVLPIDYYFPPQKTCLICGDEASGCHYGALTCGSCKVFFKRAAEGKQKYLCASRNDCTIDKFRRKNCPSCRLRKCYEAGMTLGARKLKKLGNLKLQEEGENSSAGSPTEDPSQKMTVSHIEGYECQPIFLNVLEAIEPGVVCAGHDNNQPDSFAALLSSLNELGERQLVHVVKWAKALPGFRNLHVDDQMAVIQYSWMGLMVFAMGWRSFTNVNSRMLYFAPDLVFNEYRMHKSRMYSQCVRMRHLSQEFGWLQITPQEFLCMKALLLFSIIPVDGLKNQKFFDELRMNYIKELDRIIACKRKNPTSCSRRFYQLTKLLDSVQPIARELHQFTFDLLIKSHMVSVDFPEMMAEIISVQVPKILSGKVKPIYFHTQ
In words: AR transactivation, ARE-LUC in COS cells. In kind it is cell-based. On the procedure: FIG. 3: Effect of the indicated compounds on AR transactivation. COS cells plated in DME without phenol red+10% csFBS at 90,000 cells per well of a 24 well plate were transfected with 0.25 μg ARE-LUC, 0.02 μg CMV-LUC (Renilla) and 12.5 ng of AR by lipofectamine. Twenty four hours after transfection, the cells were treated as indicated in the figure, harvested 48 hrs after transfection and were assayed for firefly and renilla luciferase.
Also 25 ng of ER-α (FIGS. 1, 5, and 9), 50 ng of ER-β (FIGS. 2, 6 and 10) or 12.5 ng of AR (FIG. 3) were introduced by lipofectamine. All the receptors were cloned from rat tissue into the PCR3.1 vector backbone. […] Cells were harvested 48 hrs after transfection, and assayed for firefly and Renilla luciferase activity.

For a further data set, the system named is PC-3 cells. In words: Androgen independent prostate cancer cell growth. The following applies: for PC-3 cell growth inhibition: 72 hrs; for PC-3 growth inhibition, qualitative grading: in vitro, data not shown. In kind it is cell-based. How it is done: PC-3 cells were plated in RPMI+10% csFBS at 6000 cells per well of a 96 well plate. Medium was changed to RPMI+1% csFBS without phenol red and then treated for 72 hrs with increasing concentrations of SERMs.
The prostate cancer cell line PC-3 was plated in RPMI+10% csFBS at 6000 cells per well of a 96 well plate. Medium was changed to RPMI+1% csFBS without phenol red and cells were treated for 72 hrs with increasing concentrations of SERMs.
PC-3 growth inhibition was determined qualitatively, in vitro, and represented as a grading system based on the ability of the SERMs to inhibit growth. The number −4 is for compounds that induced 100% growth inhibition at 1 uM, −3 for compounds that inhibit growth by about 75-90%, −2 for about 50-70% and −1 for inhibition less than 50% growth.

The nature of data set [2]: Metabolic stability in human liver microsomes. To be noted: 1 μM substrate, 0.5 mg/mL microsomes. How it is done: Each substrate or reference control was dissolved at a concentration of 10 mM in DMSO, from which a 5 μM spiking solution was prepared by dilution in water. Substrates (1 μM) were incubated in the presence of human liver microsomes (Xenotech LLC, Kansas City Mo.) at 0.5 mg/mL fortified with an NADPH regenerating system at 37° C. and pH 7.4. The NADPH regenerating system consisted of glucose-6-phosphate dehydrogenase (1 units/mL) in 0.05M K2HPO4. Duplicate incubations were performed in 96-well polypropylene cluster tubes in a final volume of 250 μL per reaction. At 0, 2, 4, 6, 10, 30, and 60 minutes a stop solution (300 μL acetonitrile) was added to aliquots of the reaction mixture. Precipitated protein was removed by centrifugation (3000 rpm for 15 minutes) and the supernatants were transferred to clean 96-well plates for analysis.
The samples were injected onto a Phenomenex Luna hexylphenyl 50×2 mm i.d. 5 uM, column fitted with a guard column. An isocratic mobile phase consisting of 50% acetonitrile and 0.1% formic acid in water was used at a flow rate of 0.3 mL/min. The protonated molecular ion (M+H)^+ of the analyte was monitored by MDS/Sciex API 4000QTrap triple quadrupole mass spectrometer using electrospray positive mode ionization with a temperature of 500° C. and a spray voltage of 4000V. Total analysis time was 1.5 min per sample.
Metabolic stability was defined as the amount of substrate metabolized by the incubation with hepatic microsomes and expressed as a percentage of the initial amount of substrate (% remaining) based on peak area. Initial substrate concentration for each analyte was 1 μM. The initial peak area of each substrate was determined at time zero and metabolic stability was assessed based on the change in analyte peak area from time 0 min to a single fixed timepoint for each sample (2-60 min, representative timepoints are shown in Table 2 below).
(Liver microsomes are a subcellular fraction often used to study metabolism.)

`O=C(c1ccccc1)N(c1ccc(O)cc1)c1ccc(OCCN2CCCCC2)cc1` [Compound 4a, N-(4-hydroxyphenyl)-N-[4-(2-piperidin-1-ylethoxy)-phenyl]-benzamide]: the pS2 expression entry in data set [1] (16 hrs) is recorded as “only minimally did so; also recorded: partial agonist of ER action in MCF-7 cells”. Further, the “inhibition of estrogen-induced upregulation of pS2 gene expression” value in data set [1] (with estrogen) is on record as “inhibited estrogen-induced upregulation of pS2 gene expression”. Also, the “AR LUC expression, compound alone” value at AR is “no effect on LUC expression”. In addition, the “inhibition of DHT-induced AR activation” value at AR (with DHT) was “nor did it inhibit DHT-induced AR activation”. The “PC-3 cell growth inhibition” value in the data set with PC-3 cells (concentration not given) is given as “about 50%”. Also, the “PC-3 growth inhibition, qualitative grading” value with PC-3 cells was −1 (−1 for inhibition less than 50% growth). Moreover, in data set [2], the “% Remaining 0 min” value is 100%, the “% Remaining 10 min” value stood at 105%, the “% Remaining 30 min” value was determined as 95% and the “% Remaining 60 min” value worked out at 74%.
As to `Cl.O=C(c1ccc(F)cc1)N(c1ccc(O)cc1)c1ccc(OCCN2CCCCC2)cc1` [Compound 4h, N-(4-hydroxyphenyl)-N-[4-(2-piperidin-1-ylethoxy)-phenyl]-4-fluroro-benzamide hydrochloride], in the data set with PC-3 cells (1 μM), the “PC-3 cell growth inhibition” value came to 75%. In the data set on PC-3 cells, the “PC-3 growth inhibition, qualitative grading” value is recorded as −2 (−2 for about 50-70%). For the same compound, in data set [2], the “% Remaining 0 min” value amounted to 100%, the “% Remaining 10 min” value is recorded as 99%, the “% Remaining 30 min” value is 86% and the “% Remaining 60 min” value is 70%.
